Assay type in all cases: functional, cell-based
The nature of assay [1]: Anticancer activity against human […] cells by HTS assay.
A short description of assay [2]: Anticancer activity against human NCI-H1944 cells by HTS assay.
Assay [3] in a line: Anticancer activity against human 292G cells by HTS assay.
In assay [4] the test system is A549. The assay is described as follows: Anticancer activity against human A549 cells by HTS assay.
Assay [5] can be described thus: Anticancer activity against human Calu1 cells by HTS assay. To be noted: Calu-1.
Assay [6] in a line: Anticancer activity against human H1299 cells by HTS assay. To be noted: NCI-H1299.
Assay [7] can be described thus: Anticancer activity against human H460 cells by HTS assay. To be noted: NCI-H460.
Assay [8] relates to NCI-H522. As to the kind of experiment: Anticancer activity against human NCI-H522 cells by HTS assay.
The subject of assay [9] is M14. As to the kind of experiment: Anticancer activity against human M14 cells by HTS assay.
Assay [10] concerns NCI-H1792. The assay is described as follows: Anticancer activity against human NCI-H1792 cells by HTS assay.
A short description of assay [11]: Anticancer activity against human M4E cells by HTS assay.
In assay [12] the test system is HOP-62. As to the kind of experiment: Anticancer activity against human HOP62 cells by HTS assay.
Assay [13] deals with NCI-H157. The assay is described as follows: Anticancer activity against human NCI-H157 cells by HTS assay.
Assay [14] has as its system HeLa. As to the kind of experiment: Anticancer activity against human HeLa cells by HTS assay.
Assay [15] is described as follows: Anticancer activity against human LOXIMVI cells by HTS assay. Conditions: LOX IMVI.
The nature of assay [16]: Anticancer activity against human SKBR cells by HTS assay.

SMILES strings stand for the structures. Where only a bound is given, the exact number is not on record here.

As usually defined, the IC50 is the concentration needed to halve the response being measured.

With `CCCCOc1ccc(-c2oc3cc(O)cc(O)c3c(=O)c2O)cc1O`, the IC50 in [1] amounted to 18.2 µM; in assay [2] it was 5.85 µM; in [3] it was 9.89 µM; in [4], 5.44 µM; in assay [5] it was 25.3 µM; in assay [6], 16 µM. Moreover, the IC50 in assay [7] worked out at 6.84 µM; in assay [8] it was 17.7 µM; in [9], 19.4 µM; in assay [10] it was 10.5 µM; in [11] it was 17.1 µM; in assay [12] it was 12.4 µM. Moreover, the half-inhibitory concentration (IC50) in [13] worked out at 6.1 µM; in assay [14], 9.48 µM; in assay [15] it was 28.8 µM; in assay [16] it was 6.72 µM.
Regarding `CCOc1cc(O)c2c(=O)c(OCC)c(-c3ccc(OCC)c(OCC)c3)oc2c1`, the IC50 is > 50 µM in assay [1]; > 50 µM in assay [2]; > 50 µM in assay [3]; 47.6 µM in [4]; > 50 µM in [5]; 24.9 µM in [6]. Further, the 50% inhibitory concentration (IC50) in assay [7] is 22.1 µM; in assay [8] it was > 50 µM; in [9], > 50 µM; in assay [10], > 50 µM; in [11] it was 21.4 µM; in [12], 44 µM. Also, the IC50 is > 50 µM in [13], > 50 µM in [14], 19.4 µM in [15] and > 50 µM in assay [16].
As for `CCCCOc1c(-c2ccc(O)c(O)c2)oc2cc(O)cc(O)c2c1=O`, the concentration for half-maximal inhibition (IC50) in assay [1] was 31.7 µM; in assay [2], 7.04 µM; in [3], 28.9 µM; in assay [4], 13.4 µM; in [5], > 50 µM; in assay [6], > 50 µM. The 50% inhibitory concentration (IC50) in assay [7] worked out at 19.7 µM; in assay [8], 12.6 µM; in [9], 25.6 µM; in assay [10] it was 4.57 µM; in [11], 18.9 µM; in assay [12] it was 21 µM. Also, the IC50 in assay [13] came to 6.32 µM; in assay [14], 10.6 µM; in assay [15], 26.3 µM; in assay [16], 9.18 µM.
In the case of `CCCCOc1cc(O)c2c(=O)c(OCCCC)c(-c3ccc(OCCCC)c(O)c3)oc2c1`, the IC50 in assay [1] is > 50 µM; in assay [2], > 50 µM; in assay [3], > 50 µM; in assay [4], 31.5 µM; in [5], > 50 µM; in assay [6], > 50 µM. Also, the 50% inhibitory concentration (IC50) in assay [7], in assay [8], in assay [9], in [10], in assay [11] and in [12] was > 50 µM throughout. Moreover, the IC50 in assay [13] was > 50 µM; in [14], 6.62 µM; in assay [15] it was > 50 µM; in [16], > 50 µM.
As to `CCCOc1ccc(-c2oc3cc(O)cc(O)c3c(=O)c2O)cc1O`, the half-maximal inhibitory concentration (IC50) is 31.1 µM in assay [1]; 21.4 µM in [2]; 28.5 µM in assay [3]; 13.9 µM in assay [4]; 26.5 µM in assay [5]; 46.5 µM in assay [6]. The IC50 in assay [7] was 12.2 µM; in assay [8], 49.5 µM; in assay [9], 25.4 µM; in assay [10], 13.3 µM; in [11] it was 27.4 µM; in assay [12], 21.9 µM. Further, the concentration for half-maximal inhibition (IC50) in assay [13] is 10.2 µM; in assay [14], 21.6 µM; in assay [15], > 50 µM; in [16] it was 18 µM.
For `COc1cc(O)c2c(=O)c(O)c(-c3ccc(OC)c(O)c3)oc2c1` [OMBUINE], the 50% inhibitory concentration (IC50) is > 50 µM in assay [1]; 2.86 µM in assay [2]; 40.7 µM in assay [3]; 3.07 µM in assay [4]; > 50 µM in assay [5]; 34.8 µM in [6]. Besides, the IC50 in [7] stood at 2.75 µM; in [8] it was 17.4 µM; in assay [9], 4.29 µM; in assay [10] it was 3.36 µM; in assay [11], 30.7 µM; in assay [12], 12.1 µM. Further, the concentration for half-maximal inhibition (IC50) is 3.45 µM in assay [13], 1.49 µM in assay [14], > 50 µM in [15] and 8.3 µM in [16].
`COc1ccc(-c2oc3cc(O)cc(O)c3c(=O)c2O)cc1O` [TAMARIXETIN]: the half-maximal inhibitory concentration (IC50) in [1] is 7.57 µM; in assay [2], 3.86 µM; in assay [3], 12.5 µM; in assay [4], 2.63 µM; in assay [5], 24.9 µM; in assay [6], 22 µM. In addition, the 50% inhibitory concentration (IC50) in assay [7] is 4.45 µM; in assay [8], > 50 µM; in [9], 14.8 µM; in [10], 4.06 µM; in assay [11] it was 19.9 µM; in assay [12], 9.93 µM. Further, the 50% inhibitory concentration (IC50) was 3.04 µM in [13], 1.81 µM in assay [14], > 50 µM in [15] and 7.97 µM in assay [16].
For `CCOc1c(-c2ccc(O)c(O)c2)oc2cc(O)cc(O)c2c1=O`, the IC50 in assay [1] is > 50 µM; in [2] it was 0.39 µM; in assay [3] it was > 50 µM; in assay [4], > 50 µM; in assay [5], > 50 µM; in assay [6], > 50 µM. For the same compound, the 50% inhibitory concentration (IC50) in [7], in assay [8], in [9], in [10], in assay [11] and in [12] was > 50 µM in each case. Besides, the IC50 in assay [13], in assay [14], in [15] and in assay [16] was > 50 µM throughout.
Take `CCCCOc1cc(O)c2c(=O)c(O)c(-c3ccc(OCCCC)c(O)c3)oc2c1`: the IC50 in assay [1] came out at 15.9 µM; in assay [2] it was 0.56 µM; in assay [3] it was 17.7 µM; in assay [4] it was 2.06 µM; in [5], 6.21 µM; in assay [6] it was 4.54 µM. The half-inhibitory concentration (IC50) was determined as 3.16 µM in assay [7]; 35.6 µM in [8]; 9.35 µM in assay [9]; 3.09 µM in assay [10]; 6.29 µM in assay [11]; 4.43 µM in assay [12]. Further, the 50% inhibitory concentration (IC50) in [13] amounted to 0.39 µM; in [14] it was 0.87 µM; in assay [15], 2.36 µM; in assay [16], 4.39 µM.
As to `CCCOc1cc(O)c2c(=O)c(O)c(-c3ccc(OCCC)c(O)c3)oc2c1`, the 50% inhibitory concentration (IC50) in assay [1] was 5.63 µM; in [2], 4.42 µM; in [3], 5.31 µM; in [4], 4.02 µM; in assay [5] it was 9.39 µM; in [6], 4.84 µM. Also, the half-maximal inhibitory concentration (IC50) in assay [7] was 1.14 µM; in assay [8], 8.14 µM; in [9], 7.61 µM; in [10], 3.63 µM; in [11], 5.77 µM; in assay [12] it was 3.28 µM. For the same compound, the half-maximal inhibitory concentration (IC50) in assay [13] stood at 0.84 µM; in assay [14] it was 5.18 µM; in assay [15] it was 3.68 µM; in assay [16], 4.72 µM.
